From publication PMC7486443, “Generation of Phenothiazine with Potent Anti-TLK1 Activity for Prostate Cancer Therapy” (iScience, 2020)

What was measured:
Assay in all cases: biochemical
Parameters in all cases: DiscoverX KINOMEscan scanMAX competition binding panel, single concentration, percent of control; remaining binding: dose or concentration left out as unconfirmed
Settings in all cases: KINOMEscan binding, percent of control; read-out: Table S4_SCANMAX REPORT - related to Fig. 1 / Percent Control
[1] = target: WNK3 (Homo sapiens, UniProt Q9BYP7)
[2] = target: T1, ASK2 (Homo sapiens, UniProt O95382)
T1 construct: gene MAP3K6

[3] = target: HASPIN (Homo sapiens, UniProt Q8TF76)
[4] = target: TSSK3 (Homo sapiens, UniProt Q96PN8)
[5] = target: KIT-autoinhibited (Homo sapiens, UniProt P10721)
[6] = target: T2, RSK1(Kin.Dom.1-N-terminal) (Homo sapiens, UniProt Q15418)
T2 construct: gene RPS6KA1; Kin.Dom.1-N-terminal

[7] = target: T3, LKB1 (Homo sapiens, UniProt Q15831)
T3 construct: gene STK11

[8] = target: EPHA6 (Homo sapiens, UniProt Q9UF33)
[9] = target: MKNK1 (Homo sapiens, UniProt Q9BUB5)
[10] = target: BUB1 (Homo sapiens, UniProt O43683)
[11] = target: SLK (Homo sapiens, UniProt Q9H2G2)
[12] = target: ITK (Homo sapiens, UniProt Q08881)
[13] = target: LATS1 (Homo sapiens, UniProt O95835)
[14] = target: FLT3(R834Q) (Homo sapiens, UniProt P36888, R834Q)
[15] = target: PIK3CA(H1047Y) (Homo sapiens, UniProt P42336, H1047Y)
[16] = target: T4, ICK (Homo sapiens, UniProt Q9UPZ9)
T4 construct: gene CILK1

[17] = target: T5, PKAC-alpha (Homo sapiens, UniProt P17612)
T5 construct: gene PRKACA

[18] = target: PRKCQ (Homo sapiens, UniProt Q04759)

ITK, sequence (Q08881 whole entry): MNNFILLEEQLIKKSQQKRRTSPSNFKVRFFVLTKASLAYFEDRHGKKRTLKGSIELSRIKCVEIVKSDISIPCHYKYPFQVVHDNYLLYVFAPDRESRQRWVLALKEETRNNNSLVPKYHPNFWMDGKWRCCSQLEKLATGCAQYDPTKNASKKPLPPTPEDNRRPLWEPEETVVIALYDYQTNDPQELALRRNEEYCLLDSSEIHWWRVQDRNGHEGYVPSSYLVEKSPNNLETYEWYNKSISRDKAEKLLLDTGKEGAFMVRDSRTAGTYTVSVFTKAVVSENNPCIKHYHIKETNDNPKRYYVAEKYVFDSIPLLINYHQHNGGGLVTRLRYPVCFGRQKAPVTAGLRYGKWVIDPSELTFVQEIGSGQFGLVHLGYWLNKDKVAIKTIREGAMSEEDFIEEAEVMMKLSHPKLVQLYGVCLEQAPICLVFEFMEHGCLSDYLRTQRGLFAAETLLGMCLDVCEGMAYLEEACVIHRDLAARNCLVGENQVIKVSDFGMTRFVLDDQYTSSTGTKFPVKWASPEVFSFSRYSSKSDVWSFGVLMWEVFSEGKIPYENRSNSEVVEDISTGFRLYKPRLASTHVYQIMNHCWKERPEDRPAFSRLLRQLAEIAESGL
T2 sequence (Q15418 whole entry): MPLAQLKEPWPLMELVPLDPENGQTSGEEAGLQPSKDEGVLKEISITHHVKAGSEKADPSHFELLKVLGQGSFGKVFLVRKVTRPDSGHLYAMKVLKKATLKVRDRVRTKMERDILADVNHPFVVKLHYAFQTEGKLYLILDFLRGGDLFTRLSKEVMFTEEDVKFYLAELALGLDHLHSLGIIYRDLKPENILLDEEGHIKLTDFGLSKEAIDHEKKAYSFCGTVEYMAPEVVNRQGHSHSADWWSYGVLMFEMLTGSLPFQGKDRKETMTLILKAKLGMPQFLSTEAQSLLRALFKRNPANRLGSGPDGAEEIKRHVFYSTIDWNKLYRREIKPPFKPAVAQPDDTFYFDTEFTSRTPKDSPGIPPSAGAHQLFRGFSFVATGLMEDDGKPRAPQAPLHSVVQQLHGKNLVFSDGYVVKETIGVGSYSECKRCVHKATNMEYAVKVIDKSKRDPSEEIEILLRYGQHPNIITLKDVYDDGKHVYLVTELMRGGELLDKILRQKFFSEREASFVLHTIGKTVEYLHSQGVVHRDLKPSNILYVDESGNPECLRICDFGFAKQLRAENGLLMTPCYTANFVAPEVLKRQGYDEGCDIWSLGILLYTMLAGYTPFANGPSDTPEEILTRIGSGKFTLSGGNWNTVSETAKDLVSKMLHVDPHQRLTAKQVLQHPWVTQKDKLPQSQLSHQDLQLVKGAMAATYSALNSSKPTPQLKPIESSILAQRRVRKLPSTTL
TSSK3, sequence (Q96PN8 whole entry): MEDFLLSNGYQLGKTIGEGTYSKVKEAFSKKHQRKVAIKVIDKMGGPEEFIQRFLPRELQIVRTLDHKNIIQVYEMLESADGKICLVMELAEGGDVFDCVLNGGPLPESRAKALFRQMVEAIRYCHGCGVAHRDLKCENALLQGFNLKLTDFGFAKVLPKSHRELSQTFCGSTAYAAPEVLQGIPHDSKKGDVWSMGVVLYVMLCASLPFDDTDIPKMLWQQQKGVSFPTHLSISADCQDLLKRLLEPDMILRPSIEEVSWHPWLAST
LATS1, sequence (O95835 whole entry): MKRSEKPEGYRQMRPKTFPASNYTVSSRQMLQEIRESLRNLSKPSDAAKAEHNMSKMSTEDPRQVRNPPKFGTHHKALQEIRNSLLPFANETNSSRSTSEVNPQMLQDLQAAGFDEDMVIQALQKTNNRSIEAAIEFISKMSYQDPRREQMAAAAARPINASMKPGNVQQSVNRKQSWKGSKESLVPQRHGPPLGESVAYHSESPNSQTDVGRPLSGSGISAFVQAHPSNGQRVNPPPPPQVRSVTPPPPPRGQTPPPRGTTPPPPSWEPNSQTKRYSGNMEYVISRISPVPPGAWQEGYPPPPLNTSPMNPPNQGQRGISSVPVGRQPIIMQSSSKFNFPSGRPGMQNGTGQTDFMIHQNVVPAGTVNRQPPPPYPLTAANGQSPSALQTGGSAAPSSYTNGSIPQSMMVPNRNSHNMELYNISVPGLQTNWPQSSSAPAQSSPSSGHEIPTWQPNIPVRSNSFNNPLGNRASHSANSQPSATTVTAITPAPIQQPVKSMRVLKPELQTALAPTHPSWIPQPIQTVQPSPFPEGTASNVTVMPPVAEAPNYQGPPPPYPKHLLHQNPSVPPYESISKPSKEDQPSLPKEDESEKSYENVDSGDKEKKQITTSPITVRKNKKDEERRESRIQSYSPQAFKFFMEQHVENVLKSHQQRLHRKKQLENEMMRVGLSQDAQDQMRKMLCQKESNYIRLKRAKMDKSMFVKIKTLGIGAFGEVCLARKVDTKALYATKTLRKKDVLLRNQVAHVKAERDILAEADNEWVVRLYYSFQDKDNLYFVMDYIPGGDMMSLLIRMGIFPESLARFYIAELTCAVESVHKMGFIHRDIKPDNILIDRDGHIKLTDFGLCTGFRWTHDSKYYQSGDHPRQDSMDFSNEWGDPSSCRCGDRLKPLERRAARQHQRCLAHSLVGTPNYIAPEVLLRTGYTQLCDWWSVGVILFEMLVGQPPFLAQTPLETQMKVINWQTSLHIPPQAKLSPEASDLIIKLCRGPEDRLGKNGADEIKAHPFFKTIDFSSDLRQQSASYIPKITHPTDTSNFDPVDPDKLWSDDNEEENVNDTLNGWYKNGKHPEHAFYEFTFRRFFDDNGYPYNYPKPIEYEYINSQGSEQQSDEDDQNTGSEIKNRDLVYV
MKNK1, sequence (Q9BUB5 whole entry): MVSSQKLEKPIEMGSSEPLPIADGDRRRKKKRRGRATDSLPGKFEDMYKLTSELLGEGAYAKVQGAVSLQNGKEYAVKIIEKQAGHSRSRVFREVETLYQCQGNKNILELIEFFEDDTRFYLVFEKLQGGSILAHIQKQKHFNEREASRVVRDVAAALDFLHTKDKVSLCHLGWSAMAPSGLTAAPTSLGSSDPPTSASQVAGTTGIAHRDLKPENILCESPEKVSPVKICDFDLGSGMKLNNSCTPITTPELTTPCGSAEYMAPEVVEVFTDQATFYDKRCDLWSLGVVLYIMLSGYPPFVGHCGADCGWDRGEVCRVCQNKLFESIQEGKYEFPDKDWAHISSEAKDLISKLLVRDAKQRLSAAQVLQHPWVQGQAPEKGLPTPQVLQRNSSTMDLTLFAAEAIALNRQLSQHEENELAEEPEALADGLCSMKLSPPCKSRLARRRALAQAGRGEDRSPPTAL
WNK3, sequence (Q9BYP7 whole entry): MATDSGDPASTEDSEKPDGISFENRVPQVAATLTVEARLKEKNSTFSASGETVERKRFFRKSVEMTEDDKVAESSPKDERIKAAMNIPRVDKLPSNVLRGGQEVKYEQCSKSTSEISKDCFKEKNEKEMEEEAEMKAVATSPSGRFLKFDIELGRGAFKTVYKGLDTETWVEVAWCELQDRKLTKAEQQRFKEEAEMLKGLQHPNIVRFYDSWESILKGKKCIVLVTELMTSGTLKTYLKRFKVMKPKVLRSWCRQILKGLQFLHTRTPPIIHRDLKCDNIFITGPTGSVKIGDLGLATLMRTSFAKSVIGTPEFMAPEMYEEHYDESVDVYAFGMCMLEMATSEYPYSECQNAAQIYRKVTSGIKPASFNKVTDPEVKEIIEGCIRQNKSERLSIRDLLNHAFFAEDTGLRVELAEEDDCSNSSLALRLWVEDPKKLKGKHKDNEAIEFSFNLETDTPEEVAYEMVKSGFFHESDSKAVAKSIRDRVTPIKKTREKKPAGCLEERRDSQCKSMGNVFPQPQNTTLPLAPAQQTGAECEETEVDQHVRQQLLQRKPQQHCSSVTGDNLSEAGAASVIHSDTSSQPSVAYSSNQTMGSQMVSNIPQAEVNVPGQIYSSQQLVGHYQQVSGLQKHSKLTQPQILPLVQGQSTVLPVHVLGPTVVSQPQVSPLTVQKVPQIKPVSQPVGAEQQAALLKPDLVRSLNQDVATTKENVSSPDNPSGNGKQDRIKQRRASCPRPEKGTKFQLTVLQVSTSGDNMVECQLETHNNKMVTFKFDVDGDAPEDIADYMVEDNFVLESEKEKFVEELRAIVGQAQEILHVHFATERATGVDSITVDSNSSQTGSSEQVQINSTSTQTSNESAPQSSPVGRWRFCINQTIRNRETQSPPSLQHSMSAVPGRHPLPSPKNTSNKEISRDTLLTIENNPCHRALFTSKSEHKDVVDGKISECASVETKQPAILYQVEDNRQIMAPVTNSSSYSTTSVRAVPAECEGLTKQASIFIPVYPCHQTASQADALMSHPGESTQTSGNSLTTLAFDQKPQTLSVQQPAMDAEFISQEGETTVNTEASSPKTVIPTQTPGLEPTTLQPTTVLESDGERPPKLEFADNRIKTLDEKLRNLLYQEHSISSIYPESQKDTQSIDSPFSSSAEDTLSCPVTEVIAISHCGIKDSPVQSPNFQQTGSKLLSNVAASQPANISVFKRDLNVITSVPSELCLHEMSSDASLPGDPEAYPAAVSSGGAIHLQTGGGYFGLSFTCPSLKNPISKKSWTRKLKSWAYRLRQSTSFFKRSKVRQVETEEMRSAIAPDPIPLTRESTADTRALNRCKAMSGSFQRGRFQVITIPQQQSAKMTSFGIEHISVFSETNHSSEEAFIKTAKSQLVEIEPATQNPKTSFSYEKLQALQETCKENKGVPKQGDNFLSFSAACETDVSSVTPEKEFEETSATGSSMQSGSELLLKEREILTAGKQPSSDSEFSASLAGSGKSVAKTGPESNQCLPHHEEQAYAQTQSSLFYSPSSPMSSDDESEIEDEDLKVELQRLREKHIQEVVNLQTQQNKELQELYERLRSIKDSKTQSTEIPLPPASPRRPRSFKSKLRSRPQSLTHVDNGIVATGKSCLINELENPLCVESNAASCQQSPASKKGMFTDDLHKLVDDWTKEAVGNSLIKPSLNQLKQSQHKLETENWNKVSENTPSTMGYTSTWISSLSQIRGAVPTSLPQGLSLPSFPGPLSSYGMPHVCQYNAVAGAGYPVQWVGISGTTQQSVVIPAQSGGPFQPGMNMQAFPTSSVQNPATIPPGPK

`c1ccc2c(c1)Sc1ccccc1N2CCN1CCOCC1` [J54] was tested, and the remaining binding [1] was 98%, the remaining binding [2] was 100% and the remaining binding [3] was 94%. The remaining binding [4] was 87%, the remaining binding [5] was 100% and the remaining binding [6] was 100%. For the same molecule, the remaining binding [7] was 89%, the remaining binding [8] was 100% and the remaining binding [9] was 92%. It also gave a remaining binding [10] of 79%, a remaining binding [11] of 100% and a remaining binding [12] of 100%. It also gave a remaining binding [13] of 81%, a remaining binding [14] of 100% and a remaining binding [15] of 86%. It also gave a remaining binding [16] of 100%, a remaining binding [17] of 98% and a remaining binding [18] of 96%.
